Source: ChEMBL document CHEMBL5291721, “A preclinical secondary pharmacology resource illuminates target-adverse drug reaction associations of marketed drugs” (Nat Commun, 2023)

Columns and labels:
[1] = target: Prostaglandin G/H synthase 1 (Homo sapiens, UniProt P23219); assay type: functional
[2] = target: Gamma-aminobutyric acid receptor subunit alpha-1 (Rattus norvegicus, UniProt P62813)
[3] = target: D(1A) dopamine receptor (Homo sapiens, UniProt P21728)
[4] = target: T1, Progesterone receptor (Homo sapiens, UniProt P06401)
T1 sequence (P06401 whole entry): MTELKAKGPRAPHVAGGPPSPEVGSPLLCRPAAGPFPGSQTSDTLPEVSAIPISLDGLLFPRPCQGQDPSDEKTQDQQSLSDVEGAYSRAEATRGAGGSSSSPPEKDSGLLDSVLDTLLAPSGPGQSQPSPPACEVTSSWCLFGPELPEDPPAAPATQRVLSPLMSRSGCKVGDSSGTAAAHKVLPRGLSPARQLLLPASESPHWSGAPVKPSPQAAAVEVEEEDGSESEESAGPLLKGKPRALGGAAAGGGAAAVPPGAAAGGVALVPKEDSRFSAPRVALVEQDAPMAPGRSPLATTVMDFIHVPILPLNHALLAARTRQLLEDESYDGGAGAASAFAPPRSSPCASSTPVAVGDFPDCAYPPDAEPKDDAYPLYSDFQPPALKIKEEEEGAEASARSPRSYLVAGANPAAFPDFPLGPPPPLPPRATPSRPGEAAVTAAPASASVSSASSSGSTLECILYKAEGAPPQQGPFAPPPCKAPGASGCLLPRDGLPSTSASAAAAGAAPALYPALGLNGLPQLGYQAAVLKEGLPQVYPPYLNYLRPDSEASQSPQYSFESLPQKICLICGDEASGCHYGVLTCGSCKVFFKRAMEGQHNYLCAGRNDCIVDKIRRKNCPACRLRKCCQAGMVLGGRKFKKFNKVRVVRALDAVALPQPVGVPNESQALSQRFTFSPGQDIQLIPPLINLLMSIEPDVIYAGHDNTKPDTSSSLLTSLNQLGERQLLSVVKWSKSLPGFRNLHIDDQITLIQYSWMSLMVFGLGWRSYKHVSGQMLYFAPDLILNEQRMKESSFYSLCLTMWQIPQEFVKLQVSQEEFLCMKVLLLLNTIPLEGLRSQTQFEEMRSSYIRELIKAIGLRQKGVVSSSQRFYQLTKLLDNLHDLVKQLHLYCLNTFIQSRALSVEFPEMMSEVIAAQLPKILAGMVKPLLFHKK

[5] = target: Histamine H3 receptor (Homo sapiens, UniProt Q9Y5N1)
Sequence of Histamine H3 receptor (Q9Y5N1 whole entry): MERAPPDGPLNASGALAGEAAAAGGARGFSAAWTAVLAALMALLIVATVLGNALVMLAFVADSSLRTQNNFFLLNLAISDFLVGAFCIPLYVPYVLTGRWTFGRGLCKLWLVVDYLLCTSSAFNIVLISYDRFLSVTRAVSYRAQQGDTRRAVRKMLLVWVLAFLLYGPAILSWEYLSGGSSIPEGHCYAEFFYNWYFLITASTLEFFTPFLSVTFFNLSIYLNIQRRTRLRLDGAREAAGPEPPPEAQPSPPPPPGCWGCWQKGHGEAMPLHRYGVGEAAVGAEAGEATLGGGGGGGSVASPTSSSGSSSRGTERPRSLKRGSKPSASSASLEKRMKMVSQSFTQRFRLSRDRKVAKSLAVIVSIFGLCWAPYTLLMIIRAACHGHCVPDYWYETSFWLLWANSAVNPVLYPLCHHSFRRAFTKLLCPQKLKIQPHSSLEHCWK

[6] = target: Cannabinoid receptor 1 (Homo sapiens, UniProt P21554); assay type: functional, cell-based
Sequence of Cannabinoid receptor 1 (P21554 whole entry): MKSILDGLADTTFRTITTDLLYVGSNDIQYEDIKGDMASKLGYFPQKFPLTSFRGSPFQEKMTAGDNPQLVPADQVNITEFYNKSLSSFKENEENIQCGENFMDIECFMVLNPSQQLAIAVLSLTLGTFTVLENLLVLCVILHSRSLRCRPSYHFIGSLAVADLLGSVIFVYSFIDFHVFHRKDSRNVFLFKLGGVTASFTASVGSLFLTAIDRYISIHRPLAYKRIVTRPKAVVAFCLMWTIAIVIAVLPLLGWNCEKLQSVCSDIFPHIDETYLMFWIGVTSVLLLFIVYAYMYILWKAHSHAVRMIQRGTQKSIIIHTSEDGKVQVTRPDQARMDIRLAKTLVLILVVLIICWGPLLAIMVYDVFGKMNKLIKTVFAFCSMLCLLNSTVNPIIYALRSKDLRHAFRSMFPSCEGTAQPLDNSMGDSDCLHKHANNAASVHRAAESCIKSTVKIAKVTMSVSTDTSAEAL

[7] = target: Beta-1 adrenergic receptor (Homo sapiens, UniProt P08588); assay type: functional
Sequence of Beta-1 adrenergic receptor (P08588 whole entry): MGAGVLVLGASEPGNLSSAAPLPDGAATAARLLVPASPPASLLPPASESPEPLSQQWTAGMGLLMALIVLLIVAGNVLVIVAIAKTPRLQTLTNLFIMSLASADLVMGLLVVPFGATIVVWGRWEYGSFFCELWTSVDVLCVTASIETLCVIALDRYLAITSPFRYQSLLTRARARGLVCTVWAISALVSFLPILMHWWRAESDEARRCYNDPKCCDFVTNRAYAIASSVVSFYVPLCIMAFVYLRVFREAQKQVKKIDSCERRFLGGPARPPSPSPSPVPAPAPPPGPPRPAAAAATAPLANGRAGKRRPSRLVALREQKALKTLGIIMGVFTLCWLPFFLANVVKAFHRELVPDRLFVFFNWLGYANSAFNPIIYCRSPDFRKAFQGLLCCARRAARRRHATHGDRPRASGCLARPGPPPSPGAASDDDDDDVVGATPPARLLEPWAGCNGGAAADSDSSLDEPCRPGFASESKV

[8] = target: Sodium-dependent serotonin transporter (Homo sapiens, UniProt P31645)
Sequence of Sodium-dependent serotonin transporter (P31645 whole entry): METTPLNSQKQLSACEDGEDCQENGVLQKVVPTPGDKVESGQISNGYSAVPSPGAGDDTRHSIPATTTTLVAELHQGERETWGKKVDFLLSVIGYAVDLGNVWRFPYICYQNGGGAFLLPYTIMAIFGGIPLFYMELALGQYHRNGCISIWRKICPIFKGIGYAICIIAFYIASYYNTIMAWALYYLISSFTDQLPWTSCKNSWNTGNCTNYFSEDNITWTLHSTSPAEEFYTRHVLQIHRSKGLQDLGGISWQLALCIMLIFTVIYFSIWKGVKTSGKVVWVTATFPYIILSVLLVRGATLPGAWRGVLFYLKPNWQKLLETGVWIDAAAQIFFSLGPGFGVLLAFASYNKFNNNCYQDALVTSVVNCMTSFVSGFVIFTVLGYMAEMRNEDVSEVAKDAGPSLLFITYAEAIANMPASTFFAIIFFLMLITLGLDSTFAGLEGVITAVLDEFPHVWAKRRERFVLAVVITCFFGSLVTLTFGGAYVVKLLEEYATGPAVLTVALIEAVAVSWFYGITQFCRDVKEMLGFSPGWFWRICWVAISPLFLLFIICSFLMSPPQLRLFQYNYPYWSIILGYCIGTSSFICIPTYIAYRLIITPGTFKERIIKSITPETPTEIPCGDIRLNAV

[9] = target: Mu-type opioid receptor (Homo sapiens, UniProt P35372)
Sequence of Mu-type opioid receptor (P35372 whole entry): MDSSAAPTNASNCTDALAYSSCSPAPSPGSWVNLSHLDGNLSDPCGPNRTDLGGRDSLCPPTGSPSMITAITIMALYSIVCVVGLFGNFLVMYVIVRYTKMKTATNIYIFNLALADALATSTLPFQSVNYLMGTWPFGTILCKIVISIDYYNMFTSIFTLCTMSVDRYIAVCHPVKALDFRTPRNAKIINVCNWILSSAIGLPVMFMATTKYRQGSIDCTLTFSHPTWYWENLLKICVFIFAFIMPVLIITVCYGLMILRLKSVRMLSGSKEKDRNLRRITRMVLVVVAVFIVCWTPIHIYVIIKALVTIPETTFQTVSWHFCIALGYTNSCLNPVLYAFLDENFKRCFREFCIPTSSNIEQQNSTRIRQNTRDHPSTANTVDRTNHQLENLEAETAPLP
Note: assay procedure not described here.

Sequence of D(1A) dopamine receptor (P21728 whole entry): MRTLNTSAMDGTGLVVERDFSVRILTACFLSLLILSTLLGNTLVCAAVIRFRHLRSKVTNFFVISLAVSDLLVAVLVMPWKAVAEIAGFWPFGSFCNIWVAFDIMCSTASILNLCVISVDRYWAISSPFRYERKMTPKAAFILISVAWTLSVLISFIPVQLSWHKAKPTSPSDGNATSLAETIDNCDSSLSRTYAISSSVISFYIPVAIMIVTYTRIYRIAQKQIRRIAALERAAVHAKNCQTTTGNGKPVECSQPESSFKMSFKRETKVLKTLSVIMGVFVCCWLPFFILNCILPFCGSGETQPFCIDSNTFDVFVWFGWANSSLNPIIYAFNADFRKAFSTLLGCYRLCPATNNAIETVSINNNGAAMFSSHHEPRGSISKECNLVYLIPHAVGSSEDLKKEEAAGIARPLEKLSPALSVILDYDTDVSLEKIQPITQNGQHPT
Sequence of Prostaglandin G/H synthase 1 (P23219 whole entry): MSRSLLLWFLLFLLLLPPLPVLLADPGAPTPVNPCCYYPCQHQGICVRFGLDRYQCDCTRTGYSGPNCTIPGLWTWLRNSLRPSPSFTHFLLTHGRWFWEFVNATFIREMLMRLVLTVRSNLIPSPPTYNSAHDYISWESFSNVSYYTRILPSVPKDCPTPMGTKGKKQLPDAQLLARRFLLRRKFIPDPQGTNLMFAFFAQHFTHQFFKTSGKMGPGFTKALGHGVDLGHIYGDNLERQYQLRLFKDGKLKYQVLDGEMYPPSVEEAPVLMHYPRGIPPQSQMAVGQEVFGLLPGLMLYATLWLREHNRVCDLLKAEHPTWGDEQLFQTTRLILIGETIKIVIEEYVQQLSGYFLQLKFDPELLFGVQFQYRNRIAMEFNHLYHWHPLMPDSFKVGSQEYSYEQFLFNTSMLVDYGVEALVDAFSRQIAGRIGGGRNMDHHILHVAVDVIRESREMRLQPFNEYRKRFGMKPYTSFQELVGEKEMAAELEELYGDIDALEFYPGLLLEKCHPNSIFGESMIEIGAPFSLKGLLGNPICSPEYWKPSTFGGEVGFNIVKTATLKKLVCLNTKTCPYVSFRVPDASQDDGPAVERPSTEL
Sequence of Gamma-aminobutyric acid receptor subunit alpha-1 (P62813 whole entry): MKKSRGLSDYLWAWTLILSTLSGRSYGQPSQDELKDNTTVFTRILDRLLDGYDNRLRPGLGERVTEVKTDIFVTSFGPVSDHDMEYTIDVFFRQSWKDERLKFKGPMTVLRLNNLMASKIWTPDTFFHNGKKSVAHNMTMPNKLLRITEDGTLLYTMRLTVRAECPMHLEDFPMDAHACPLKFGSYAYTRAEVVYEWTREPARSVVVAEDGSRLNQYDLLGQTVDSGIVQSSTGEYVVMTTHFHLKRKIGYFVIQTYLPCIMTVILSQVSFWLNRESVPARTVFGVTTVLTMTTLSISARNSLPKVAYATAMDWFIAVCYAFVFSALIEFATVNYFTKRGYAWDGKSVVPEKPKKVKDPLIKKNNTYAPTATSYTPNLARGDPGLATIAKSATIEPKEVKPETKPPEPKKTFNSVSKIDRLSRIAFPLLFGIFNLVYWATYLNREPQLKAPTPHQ

Compound	AC50 [1] [µM]	AC50 [3] [µM]	AC50 [4] [µM]	AC50 [5] [µM]	AC50 [6] [µM]	AC50 [7] [µM]	further results
CC(=O)O[C@]1(C(C)=O)CC[C@H]2[C@@H]3C=C(Cl)C4=CC(=O)CC[C@]4(C)[C@H]3CC[C@@]21C [CHLORMADINONE ACETATE]	> 30	> 30	0.003				AC50 [2]: > 30 µM
CC1(C)S[C@@H]2[C@H](NC(=O)[C@H](N)c3ccccc3)C(=O)N2[C@H]1C(=O)OCOC(=O)[C@@H]1N2C(=O)C[C@H]2S(=O)(=O)C1(C)C [SULTAMICILLIN]				> 30	> 30		
Nc1ncn([C@H]2C[C@H](O)[C@@H](CO)O2)c(=O)n1 [DECITABINE]				> 30		19.1	
CCN(CCCc1ccccc1)CCCc1ccccc1 [ALVERINE]	> 30	3.72	> 30				AC50 [8]: 1.7 µM
CCOC(=O)C1=C[C@]2(CC)CCCN3CCc4c(n1c1ccccc41)[C@@H]32 [VINPOCETINE]				18	> 30	> 30	
CC(C)(C)C(=O)OCC(=O)[C@H]1CC[C@H]2[C@@H]3CCC4=CC(=O)CC[C@]4(C)[C@H]3CC[C@]12C [DESOXYCORTICOSTERONE PIVALATE]				> 10	> 30	> 10	AC50 [9]: > 30 µM
C[C@]12CCC(=O)C(O)=C1CC[C@@H]1[C@@H]2CC[C@]2(C)C(=O)CC[C@@H]12 [FORMESTANE]				> 30	> 30	> 30	
CC(C)(C)NC[C@H](O)COc1cccc2c1CCCC2=O [LEVOBUNOLOL]	> 30	> 30	> 30				
CCC1(c2ccccc2)CCC(=O)NC1=O (stereo unspecified) [GLUTETHIMIDE]				> 10	> 30	> 10	AC50 [9]: > 30 µM
CC[C@@H]([C@H](C)O)n1ncn(-c2ccc(N3CCN(c4ccc(OC[C@@H]5CO[C@@](Cn6cncn6)(c6ccc(F)cc6F)C5)cc4)CC3)cc2)c1=O [POSACONAZOLE]	> 30	> 30	> 30				AC50 [2]: > 30 µM
CCC(C)C(CC)C(N)=O (stereo unspecified) [VALNOCTAMIDE]				> 30	> 30	> 30	
CCC(=O)O[C@]1(C(=O)CCl)[C@@H](C)C[C@H]2[C@@H]3C[C@H](F)C4=CC(=O)C=C[C@]4(C)[C@@]3(F)[C@@H](O)C[C@@]21C [HALOBETASOL PROPIONATE]	> 30	> 30	0.003				AC50 [8]: > 30 µM
c1ccc2c(c1)CCc1ccccc1N2C1CN2CCC1CC2 (stereo unspecified) [QUINUPRAMINE]	> 30	2.41	> 30				AC50 [8]: 0.507 µM
C/N=C(\NC)NCc1ccccc1 [BETHANIDINE]				> 30	> 30		
Cc1noc(NS(=O)(=O)c2ccc(N)cc2)c1C [SULFISOXAZOLE]				> 10	> 30	> 10	AC50 [9]: > 30 µM
CCCCC1C(=O)N(c2ccccc2)N(c2ccccc2)C1=O [PHENYLBUTAZONE]						> 10	AC50 [9]: > 30 µM
CCOC(=O)N1CSC[C@H]1C(=O)O [TELMESTEINE]	> 30	> 30	> 30				AC50 [8]: > 30 µM
C[C@H](Cc1ccc(O)c(O)c1)[C@@H](C)Cc1ccc(O)c(O)c1 [MASOPROCOL]				> 10	> 30	> 30	AC50 [9]: > 30 µM
Cc1cc(C(C)(C)C)cc(C)c1CC1=NCCN1 [XYLOMETAZOLINE]				6.9	> 30	> 30	
CC1OC2(CS1)CN1CCC2CC1 (stereo unspecified) [CEVIMELINE]						> 10	AC50 [9]: > 30 µM
Cc1ncc(COP(=O)(O)O)c(C=O)c1O [PYRIDOXAL PHOSPHATE ANHYDROUS]	6.68	> 30	> 30				AC50 [8]: > 30 µM
C#C[C@]1(OC(C)=O)CC[C@H]2[C@@H]3CCC4=C/C(=N/O)CC[C@@H]4[C@H]3CC[C@@]21CC [NORGESTIMATE]				> 30	> 30	> 30	
CCOC(=O)c1cncn1[C@H](C)c1ccccc1 [ETOMIDATE]				> 10	> 30	> 10	AC50 [9]: > 30 µM
Cc1cc2cc3c(C)cc(=O)oc3c(C)c2o1 [TRIOXSALEN]						> 10	AC50 [9]: > 30 µM

Compound	AC50 [1] [µM]	AC50 [3] [µM]	AC50 [4] [µM]	AC50 [5] [µM]	AC50 [6] [µM]	AC50 [7] [µM]	further results
Oc1ccc2c(c1)CC[C@H](c1ccccc1)[C@@H]2c1ccc(OCCN2CCCC2)cc1 [LASOFOXIFENE]				0.99	> 30	10	
Clc1ccc(C(Cn2ccnc2)OCc2ccsc2Cl)c(Cl)c1 (stereo unspecified) [TIOCONAZOLE]				> 30		24.3	
Clc1ccc2c(N3CCN(CCCN4CCN(c5ccnc6cc(Cl)ccc56)CC4)CC3)ccnc2c1 [PIPERAQUINE]				6.1	> 30	> 30	
CCC(C)C1(CC)C(=O)NC(=O)NC1=O (stereo unspecified) [BUTABARBITAL]				> 30	> 30	> 30	
CC(C(=O)O)c1ccc(CC2CCCC2=O)cc1 (stereo unspecified) [LOXOPROFEN]				> 30	> 30	> 30	
CC(=O)N[C@@H](CS)C(=O)O [ACETYLCYSTEINE]				> 30	> 30	> 30	
COC(=O)c1ccc(O)cc1 [METHYLPARABEN]	> 1	> 30	> 30				
Cc1ccccc1N1CCN(CCc2nnc3n2CCCC3)CC1 [DAPIPRAZOLE]	> 30	> 30	> 30				
COc1cc(N)c(Cl)cc1C(=O)NC1CCN(Cc2ccccc2)CC1 [CLEBOPRIDE]				> 30	> 30		
COc1ccc(CN(CCN(C)C)c2ccccn2)cc1 [PYRILAMINE]	> 30	24.2	> 30				AC50 [2]: > 30 µM
CC(C)N(CCNC(=O)CN1CCCC1=O)C(C)C	> 30	> 30	> 30				AC50 [8]: > 30 µM
C[C@H](Cc1cc2c(c(C(N)=O)c1)N(CCCO)CC2)NCCOc1ccccc1OCC(F)(F)F [SILODOSIN]	15	10.8	> 30				AC50 [8]: > 30 µM
CCCc1nc(C(C)(C)O)c(C(=O)O)n1Cc1ccc(-c2ccccc2-c2nnn[nH]2)cc1 [OLMESARTAN]	> 30	> 30	> 30				AC50 [8]: > 30 µM
C[C@]12CC[C@@H]3c4ccc(O)cc4C[C@@H](CCCCCCCCC[S+]([O-])CCCC(F)(F)C(F)(F)F)[C@H]3[C@@H]1CC[C@@H]2O (stereo partly specified) [FULVESTRANT]				> 30	> 30	> 30	
Cc1cccc(N2CC(CO)OC2=O)c1 (stereo unspecified) [TOLOXATONE]				> 30	> 30	> 30	
C=C1CC[C@H](O)C/C1=C/C=C1\CCC[C@]2(C)[C@@H]([C@H](C)/C=C/[C@H](C)C(C)C)CC[C@@H]12 [ERGOCALCIFEROL]	> 30	> 30	> 30				AC50 [2]: > 30 µM
COCC1=C(C(=O)O)N2C(=O)[C@@H](NC(=O)/C(=N\OC)c3csc(N)n3)[C@H]2SC1 [CEFPODOXIME]				> 30	> 30	> 30	
CC1=CCC(C(C)(C)O)CC1O (stereo unspecified) [SOBREROL]	> 30	> 30	> 30				AC50 [8]: > 30 µM
CNCc1ccc(-c2[nH]c3cc(F)cc4c3c2CCNC4=O)cc1 [RUCAPARIB]						40.1	AC50 [9]: > 30 µM
Cc1c(N(C)CS(=O)(=O)O)c(=O)n(-c2ccccc2)n1C [METAMIZOLE]	3.66	> 30	> 30				
CN(C)CCCNc1c2ccccc2nc2cccc([N+](=O)[O-])c12 [NITRACRINE]				> 10	> 30	> 30	
CC(C)[C@H](N)C(=O)OCC(CO)OCn1cnc2c(=O)nc(N)[nH]c21 (stereo partly specified) [VALGANCICLOVIR]				> 30		> 30	
C=CCNc1nc(NCC=C)nc(N2CCN(C(c3ccc(F)cc3)c3ccc(F)cc3)CC2)n1 [ALMITRINE]				> 30		> 30	
CCC(=O)O[C@H]1CC[C@H]2[C@@H]3CCC4=CC(=O)CC[C@]4(C)[C@H]3CC[C@]12C [TESTOSTERONE PROPIONATE]					> 30	> 10	AC50 [9]: > 30 µM
